Experimental data taken from patent US10064848B2, “Pyridic ketone derivatives, method of preparing same, and pharmaceutical application thereof” (Shanghai Hengrui Pharmaceutical Co., Ltd., priority 2013, dated 2018).

What was measured:
[1] = tested on: Colo205 cell; assay: Proliferation inhibition on Colo205 (CCK8); assay type: cell-based; settings: Homo sapiens, COLO 205, Colo205, 72 hours
[2] = target: T1, CYP1A2 (Homo sapiens, UniProt P05177); assay: In vitro CYP enzyme inhibition, human liver microsomes; assay type: in vitro ADME; settings: probe Phenacetin, single point method
T1 construct: from tissue; host or cells: human liver microsomes
T1 sequence (P05177 1-516): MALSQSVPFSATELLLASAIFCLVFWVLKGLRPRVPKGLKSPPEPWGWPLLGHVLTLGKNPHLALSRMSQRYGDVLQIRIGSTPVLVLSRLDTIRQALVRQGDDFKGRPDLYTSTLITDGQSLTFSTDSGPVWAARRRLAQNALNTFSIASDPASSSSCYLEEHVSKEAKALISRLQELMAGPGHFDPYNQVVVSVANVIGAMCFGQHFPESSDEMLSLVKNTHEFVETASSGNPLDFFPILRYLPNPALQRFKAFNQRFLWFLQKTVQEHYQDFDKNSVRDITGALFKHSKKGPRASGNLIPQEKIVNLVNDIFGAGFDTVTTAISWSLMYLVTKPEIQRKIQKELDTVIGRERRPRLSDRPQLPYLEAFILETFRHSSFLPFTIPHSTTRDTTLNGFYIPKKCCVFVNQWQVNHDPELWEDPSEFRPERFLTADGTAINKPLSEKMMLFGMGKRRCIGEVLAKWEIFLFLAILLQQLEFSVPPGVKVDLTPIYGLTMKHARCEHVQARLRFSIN
Protocol: (§1) Human liver microsome incubation system was used to reflect the activity of enzymes based on the amount of metabolites produced. Enzyme inhibition of the test compounds was investigated on CYP1A2, CYP2C9, […], CYP3A4m, CYP3A4t and CYP2C19, and IC50 values (a concentration of the test compound that is required for 50% inhibition of enzyme activity) were measured. […] The appropriate amount of test compound standard sample was weighed, and diluted with DMSO to 50 mM to obtain stock solution I. The stock solution I was diluted with PBS to 100 μM to obtain the reaction liquid which is to be used in incubation. [table] The reaction mixture was prepared: 60 μL [table] The above mixture was preincubated for 5 minutes at 37° C., followed by addition of 40 μL of NADPH (2.5 mM, PBS formulation). The mixture solution was incubated for 20 minutes at 37° C. All incubated samples were set to double samples. 300 μL ice-cold acetonitrile was added to terminate the reaction. The reaction solution was added with 100 μl internal standard, mixed uniformly, and centrifuged for 10 minutes at 3500 rpm. The supernatant was transferred to the LC-MS/MS analysis. The activity of enzymes was reflected by the production amount of metabolites. Using a single point method, the formula was calculated as follows: According to the known literature: IC50>10 μM belongs to weaker inhibition, 1 μM<IC50<10 μM belong to moderate inhibition, IC50<1 μM belong to strong inhibition.

[3] = target: T2, CYP2C19 (Homo sapiens, UniProt P33261); assay: as above; assay type: in vitro ADME; settings: probe (S)-Mephenytoin, single point method
T2 construct: from tissue; host or cells: human liver microsomes
T2 sequence (P33261 whole entry): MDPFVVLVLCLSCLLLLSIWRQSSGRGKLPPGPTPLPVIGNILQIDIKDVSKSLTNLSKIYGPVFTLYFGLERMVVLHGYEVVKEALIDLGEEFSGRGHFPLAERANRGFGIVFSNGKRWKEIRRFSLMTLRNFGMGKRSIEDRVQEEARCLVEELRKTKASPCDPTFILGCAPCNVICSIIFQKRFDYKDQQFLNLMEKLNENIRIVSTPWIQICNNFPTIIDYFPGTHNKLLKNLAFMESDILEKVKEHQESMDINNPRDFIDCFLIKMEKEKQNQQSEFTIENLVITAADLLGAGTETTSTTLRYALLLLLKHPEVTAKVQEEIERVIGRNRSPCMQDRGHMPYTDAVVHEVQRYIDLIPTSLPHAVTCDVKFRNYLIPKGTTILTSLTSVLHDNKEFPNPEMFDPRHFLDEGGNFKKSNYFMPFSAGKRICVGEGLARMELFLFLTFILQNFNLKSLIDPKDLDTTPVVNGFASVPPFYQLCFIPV
Protocol: as §1

[4] = target: CYP2C6 (Homo sapiens, UniProt P10635); assay: as above; assay type: in vitro ADME; settings: single point method
CYP2C6, sequence (P10635 whole entry): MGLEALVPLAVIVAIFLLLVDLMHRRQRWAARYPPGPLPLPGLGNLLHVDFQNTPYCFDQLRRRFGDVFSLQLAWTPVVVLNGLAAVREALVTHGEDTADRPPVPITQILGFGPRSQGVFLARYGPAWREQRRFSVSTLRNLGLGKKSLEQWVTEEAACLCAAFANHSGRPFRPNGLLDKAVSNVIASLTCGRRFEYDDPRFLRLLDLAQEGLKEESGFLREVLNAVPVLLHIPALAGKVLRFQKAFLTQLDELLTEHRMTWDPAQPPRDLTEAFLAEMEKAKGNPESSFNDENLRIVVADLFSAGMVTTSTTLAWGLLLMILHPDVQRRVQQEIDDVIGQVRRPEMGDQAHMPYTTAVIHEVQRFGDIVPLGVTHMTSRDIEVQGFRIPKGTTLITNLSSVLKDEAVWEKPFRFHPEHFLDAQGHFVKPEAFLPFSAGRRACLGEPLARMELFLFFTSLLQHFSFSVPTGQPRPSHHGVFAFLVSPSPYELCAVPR
Protocol: as §1

[5] = target: T3, CYP2C9 (Homo sapiens, UniProt P11712); assay: as above; assay type: in vitro ADME; settings: probe Diclofenac, single point method
T3 construct: from tissue; host or cells: human liver microsomes
T3 sequence (P11712 whole entry): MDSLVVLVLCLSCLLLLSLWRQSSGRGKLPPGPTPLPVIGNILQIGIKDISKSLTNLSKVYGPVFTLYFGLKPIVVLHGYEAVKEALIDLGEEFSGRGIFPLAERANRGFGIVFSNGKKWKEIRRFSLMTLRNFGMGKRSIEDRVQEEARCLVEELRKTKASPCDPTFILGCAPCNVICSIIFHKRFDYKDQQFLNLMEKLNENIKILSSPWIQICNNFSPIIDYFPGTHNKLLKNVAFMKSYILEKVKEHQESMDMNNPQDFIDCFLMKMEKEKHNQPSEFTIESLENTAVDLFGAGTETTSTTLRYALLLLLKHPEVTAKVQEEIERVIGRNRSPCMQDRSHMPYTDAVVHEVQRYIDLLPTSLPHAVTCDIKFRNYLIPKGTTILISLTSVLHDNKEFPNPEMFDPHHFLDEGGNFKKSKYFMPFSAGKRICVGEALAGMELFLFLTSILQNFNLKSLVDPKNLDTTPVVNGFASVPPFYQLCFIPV
Protocol: as §1

[6] = target: T4, CYP3A4m (Homo sapiens, UniProt P08684); assay: as above; assay type: in vitro ADME; settings: probe Midazolam, single point method
T4 construct: from tissue; host or cells: human liver microsomes
T4 sequence (P08684 whole entry): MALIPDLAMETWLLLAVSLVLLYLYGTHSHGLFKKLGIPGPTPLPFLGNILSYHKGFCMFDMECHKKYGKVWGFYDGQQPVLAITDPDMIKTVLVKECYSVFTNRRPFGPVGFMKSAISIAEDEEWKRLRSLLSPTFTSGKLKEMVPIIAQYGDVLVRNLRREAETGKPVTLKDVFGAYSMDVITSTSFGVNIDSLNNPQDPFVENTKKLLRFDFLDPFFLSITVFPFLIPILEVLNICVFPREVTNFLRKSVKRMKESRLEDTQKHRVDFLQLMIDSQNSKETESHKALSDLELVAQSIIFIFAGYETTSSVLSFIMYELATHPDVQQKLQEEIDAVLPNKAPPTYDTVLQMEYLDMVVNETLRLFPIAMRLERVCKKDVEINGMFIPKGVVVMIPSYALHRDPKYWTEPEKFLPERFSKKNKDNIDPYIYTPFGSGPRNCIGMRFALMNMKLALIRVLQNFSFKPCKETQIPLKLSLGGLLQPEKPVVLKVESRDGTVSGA
Protocol: as §1

[7] = target: T5, CYP3A4t (Homo sapiens, UniProt P08684); assay: as above; assay type: in vitro ADME; settings: probe Testosterone, single point method
T5 construct: from tissue; host or cells: human liver microsomes
T5 sequence (P08684 whole entry): as above
Protocol: as §1

[8] = Pharmacokinetics assay in SD rats, intragastric administration; assay type: in vivo, Sprague-Dawley (SD) rats; settings: 10 mg/kg; for AUC / CL/F / half-life / MRT / Cmax: both sexes, Sprague-Dawley, rat, plasma, po; for AUC: read-out: Area Under Curve AUC; for CL/F: read-out: Clearance CL/F; for half-life: read-out: Half-Life T½ (converted); for MRT: read-out: Mean Residence Time MRT; for Cmax: read-out: Plasma Conc. Cmax
Protocol: Sprague-Dawley (SD) rats were used as test animals. The compounds of Example 1, Example 22, Example 29 and Example 31 were administered intragastrically to rats to determine the drug concentration in plasma at different time points by a LC/MS/MS method. The pharmacokinetic behavior of the compounds of the present invention was studied and evaluated in rats.
16 Healthy adult SD rats, half male and half female, purchased from SINO-BRITSH SIPPR/BK LAB. ANIMAL LTD., CO, Certificate No.: SCXK (Shanghai) 2008-0016, were divided into four groups, with 4 rats in each group.
The appropriate amounts of test compounds were weighed and mixed with 40 μL of tween 80 and 0.5% CMC-Na to prepare a 1 mg/mL suspension by an ultrasonic method.
After an overnight fast, 16 SD rats, half male and half female, were divided into 4 groups, with 4 rats in each group, and administered the test compounds intragastrically at a dose of 10 mg/kg, and an administration volume of 10 mL/kg.
Blood samples (0.1 mL) were taken from the orbital sinus before administration, and at 0.5 h, 1 h, 2 h, 4 h, 6 h, 8 h, 11 h, 24 h and 48 h after administration, stored in heparinized tubes, and centrifuged for 10 minutes at 3,500 rpm to separate blood plasma. The plasma samples were stored at −20° C. The rats were fed 2 hours after administration.
The concentration of the test compounds in rat plasma after intragastrically administering the test compounds was analyzed by a LC-MS/MS method. The linearity range of the method is 1.00-2000 ng/ml, and the lower limit of quantification is 1.00 ng/ml. Plasma samples were analyzed after protein precipitation.

SMILES	IC50 [1] [pM]	IC50 [2] [µM]	IC50 [3] [µM]	IC50 [4] [µM]	IC50 [5] [µM]	IC50 [6] [µM]	IC50 [7] [µM]	Apparent Distribution Volume Vd [8] [L/kg]	AUC [8] [ng·h/mL]	CL/F [8] [mL/min/kg]	half-life [8] [h]	MRT [8] [h]	Cmax [8] [ng/mL]
Cc1cc(F)ccc1Oc1cc(=O)n(C)c(Nc2ccc(I)cc2F)c1C(N)=O [Example 22, 4-(4-fluoro-2-methylphenoxy)-2-((2-fluoro-4-iodophenyl)amino)-1-methyl-6-oxo-1,6-dihydropyridine-3-carboxamide]	6100	> 10	> 10	> 10	> 10	> 10	> 10	98.789 ± 42.165	1110 ± 746	224 ± 151	7.18 ± 4.64	11.3 ± 6.7	108 ± 38
Cc1ncccc1Oc1cc(=O)n(C)c(Nc2ccc(I)cc2F)c1C(N)=O [Example 29, 2-((2-fluoro-4-iodophenyl)amino)-1-methyl-4-((2-methylpyridin-3-yl)oxy)-6-oxo-1,6-dihydropyridine-3-carboxamide]	800	> 10	> 10	> 10	> 10	> 10	> 10	11.319 ± 6.87	6120 ± 3030	32.9 ± 15.5	3.79 ± 0.76	3.79 ± 0.5	1440 ± 396
Cc1ccc(Oc2cc(=O)n(C)c(Nc3ccc(I)cc3F)c2C(N)=O)cn1 [Example 31, 2-((2-fluoro-4-iodophenyl)amino)-1-methyl-4-((6-methylpyridin-3-yl)oxy)-6-oxo-1,6-dihydropyridine-3-carboxamide]	3600	> 10	> 10	> 10	> 10	> 10	> 10	4.483 ± 3.051	18100 ± 9970	11.6 ± 5.9	4.12 ± 0.96	4.43 ± 0.96	3370 ± 756
CCS(=O)(=O)Nc1cccc(Oc2cc(=O)n(C)c(Nc3ccc(I)cc3F)c2C(N)=O)c1C [Example 3, 4-(3-(ethylsulfonamido)-2-methylphenoxy)-2-((2-fluoro-4-iodophenyl)amino)-1-methyl-6-oxo-1,6-dihydropyridine-3-carboxamide]	40	> 50	> 10	> 50	> 50	> 50	> 50						
Cc1c(F)cccc1Oc1cc(=O)n(C)c(Nc2ccc(I)cc2F)c1C(N)=O [Example 1, 4-(3-fluoro-2-methylphenoxy)-2-((2-fluoro-4-iodophenyl)amino)-1-methyl-6-oxo-1,6-dihydropyridine-3-carboxamide]	700	> 10	> 10	> 10	> 10	> 10	> 10	163.863 ± 87.909	642 ± 187	280 ± 94.6	6.61 ± 1.66	10.5 ± 2.41	56.3 ± 15.6
